Here are results for 13 compounds from US12448366B2, “Solid forms of pralsetinib” (Rigel Pharmaceuticals, Inc., priority 2020, dated 2025).

Values after ≈ are worked out from the molar mass of the structure shown. Like-named read-outs stand apart in the source and are kept apart here.

Holding throughout (assay type): physicochemical
Data set [1] in a line: Co-milling co-crystal screening, XRPD. To be noted: co-milling with freebase. Here is the method: About 30 mg of Compound (I) freebase and 1.05 eq. of co-former were direct weighed into the milling capsule and manually mixed before the addition of 1 volume of solvent (MtBE, MeOAc, or EtOH). Each system was milled once for 30 seconds before solids were collected. Samples of the wet material were taken for XRPD of the ‘wet’ material before drying under active vacuum at 50° C. for 2 hours. Unique patterns were further exposed to 97% R.H. for 24 hours.

The nature of data set [2]: Co-melting co-crystal screening, XRPD. To be noted: co-melting with pralsetinib freebase, 1.05 eq. co-former. Here is the method: The resulting powder was packed into a 100 μL DSC pan and heated at a rate of 10° C./min to 10° C. above the melting temperature of the lowest melting component. The experiment was isothermally held for 5 min before cooling to room temperature at a rate of 10° C./min. Samples were then taken for XRPD.

The nature of data set [3]: Dynamic vapor sorption (DVS). To be noted: for DVS Mass Change: glutarate and succinate: between 2% and 90% relative humidity. Here is the method:
Dynamic Vapor Sorption (DVS) was done using a DVS Intrinsic 1. The sample is loaded into a sample pan and suspended from a microbalance. A typical sample mass for DVS measurement is 25 mg. Nitrogen gas bubbled through distilled water provides the desired relative humidity. A typical measurement comprises the steps: • 1—Equilibrate at 50% RH • 2—50% to 2%. (50%, 40%, 30%, 20%, 10% and 2%) • a. Hold minimum of 5 mins and maximum of 60 minutes at each humidity. The pass criteria is less than 0.002% change • 3—2% to 95% (2%, 10%, 20%, 30%, 40%, 50%, 60%, 70%, 80%, 90%, 95%) • a. Hold minimum of 5 mins and maximum of 60 minutes at each humidity. The pass criteria is less than 0.002% change • 4—95% to 2% (95%, 80%, 70%, 60%, 50%, 40%, 30%, 20%, 10%, 2%) • a. Hold minimum of 5 mins and maximum of 60 minutes at each humidity. The pass criteria is less than 0.002% change • 5—2% to 50% (2%, 10%, 20%, 30%, 40%, 50%) • a. Hold minimum of 5 mins and maximum of 60 minutes at each humidity. The pass criteria is less than 0.002% change High Pressure Liquid Chromatography (HPLC)
Dynamic Vapor Sorption (DVS) was performed using a DVS Intrinsic 1. The samples (12-31 mg) was loaded into a sample pan, suspended from a microbalance and exposed to a humidified stream of nitrogen gas. The sample was held for a minimum of 5 min at each level and only progressed to the next humidity level if there was <0.002% change in weight between measurements (interval: 60 seconds) or 240 min had elapsed. The following program was used: • 1—Equilibration at 50% RH • 2—50% to 2%. (50%, 40%, 30%, 20%, 10% and 2%) • 3—2% to 95% (2%, 10%, 20%, 30%, 40%, 50%, 60%, 70%, 80%, 90%, 95%) • 4—95% to 2% (95%, 80%, 70%, 60%, 50%, 40%, 30%, 20%, 10%, 2%) • 5—2% to 50% (2%, 10%, 20%, 30%, 40%, 50%) High Performance Liquid Chromatography (HPLC)

A short description of data set [4]: Salt screening: XRPD of wet cake, after drying under vacuum at 50° C., after exposure to 97% relative humidity. To be noted: XRPD; for stability of salt solid form to humidification: 97% (>95%) relative humidity; for stability of salt solid form to drying: vacuum at 50° C. The protocol: Stock solutions of counter-ion were prepared in EtOH, MeOH, or EtOAc, depending on solubility. […] The solvent was allowed to evaporate at room temperature over the weekend and then placed at 50° C. under vacuum for 3 hours to remove any remaining solvent. Approximately 25 volumes solvent (0.6 mL) was added to each vial for screening. The three solvents selected were EtOH, EtOAc, and IPA:water (9:1 vol). […] XRPD analysis was done in three stages. XRPD of the wet cake was done for all samples. Unique solids were then left on XRPD plates and dried under vacuum at 50° C. XRPD of unique dry solids was then done. […] The humid environment was generated by placing a beaker of saturated potassium sulfate in water in a sealed container. All XRPD patterns were compared to counter ion XRPD patterns and known free base patterns. Where solids were not of sufficient quantity to isolate, the solvent was evaporated at room temperature, the material dried at 50° C. under active vacuum for 3 hours, and then reslurried at room temperature in either MtBE or IPAc overnight after heating to 45° C. for 30 minutes.

A short description of data set [5]: One week (7 days) slurry stability by XRPD and HPLC. As to conditions: for stability slurrying 7 days in EtOAc / stability slurrying 7 days in EtOH / stability slurrying 7 days in EtOH:water (95:5 vol): XRPD and HPLC.
Data set [6] can be described thus: Humidity exposure, 75% relative humidity at 40° C. for one week, XRPD. To be noted: for stability on exposure to 75% relative humidity at 40° C.: one week / 7 days, XRPD.
Data set [7] is described as follows: Solubility in water and simulated fluids (fasted/fed state simulated intestinal fluid, fasted state simulated gastric fluid). To be noted: for solubility: thermodynamic from solid.
A short description of data set [8]: Drying of free base solid forms (XRPD). To be noted: for behaviour upon drying: XRPD.

In the case of `Nc1ccc(C(=O)O)cc1` [4-Aminobenzoic Acid], the “Wet (XRPD)” value is “FB-C” in data set [1] (solvent EtOH) and “FB-C + 4-Aminobenzoic” in data set [1] (solvent MtBE, MeOAc).
As for `O=C(O)c1ccc(O)cc1` [4-Hydroxybenzoic Acid], the “Wet (XRPD)” value in data set [1] (solvent MtBE, MeOAc, EtOH) is listed as “FB-C”. Further, the “Dry (XRPD)” value in data set [2] is on record as “Am”.
For `O=C(O)c1ccccc1` [Benzoic Acid], in that order: “FB-C” and “Am”.
For `O=C(O)c1cc(O)ccc1O` [Gentisic Acid], in that order: “FB-C” and “Am”.
As for `CO[C@]1(C(=O)N[C@@H](C)c2ccc(-n3cc(F)cn3)nc2)CC[C@H](c2nc(C)cc(Nc3cc(C)[nH]n3)n2)CC1` [Solid Form 14-A, pralsetinib], the “hysteresis in the DVS plot” value in data set [3] is reported as “minimal hysteresis”. The “mass change by DVS” value was 0.94 wt. % in data set [3] (between 2% and 90% relative humidity, listed as solid form 14-A); 0.86 wt. % in data set [3] (between 15% and 75% relative humidity, listed as solid form 14-A). Moreover, the “DVS Mass Change” value in data set [3] (listed as Phosphate 14-A) is on record as 0.94 wt. %. The “reversibility of the DVS mass change” value in data set [3] (listed as solid form 14-A) was “appears to be reversible”. In addition, the “stability of salt solid form to humidification” value (from here on “stability … to humidification”) in data set [4] (listed as Pattern 14-A), in data set [4] (listed as phosphate 14-A) and in data set [4] (listed as solid form 14-A) was “stable” throughout. Moreover, the “stability of salt solid form to drying” value in data set [4] (listed as Pattern 14-A), in data set [4] (listed as phosphate 14-A) and in data set [4] (listed as solid form 14-A) was “stable” throughout. In data set [5], the “Stability 7-day slurry” value is recorded as “Stable”. In data set [5] (listed as solid form 14-A), the “stability slurrying 7 days in EtOAc” value is reported as “stable”. For the same compound, the “stability slurrying 7 days in EtOH” value in data set [5] (listed as solid form 14-A) was “stable”. Also, in data set [5] (listed as solid form 14-A), the “stability slurrying 7 days in EtOH:water (95:5 vol)” value is listed as “stable”. In addition, the “reduction (HPLC purity) after 7 days slurry” value in data set [5] (materials isolated from EtOAc) is 0.07%. For the same compound, the “Stability 40° C./75% RH” value in data set [6] (XRPD pattern after exposure, listed as Phosphate 14-A) is on record as “Stable”. Also, the “stability on exposure to 75% relative humidity at 40° C.” value in data set [6] (listed as solid form 14-A) was “stable”. For the same compound, the solubility (in general, the concentration that dissolves in the medium under given conditions) in data set [7] (fasted state simulated gastric fluid, fassgf or other biorelevant, read-out: Solubility in fasted state simulated gastric fluid) was 1760 µg/mL (≈ 3300 µM); in data set [7] (fed state simulated intestinal fluid, fessif, read-out: Solubility in fed state simulated intestinal fluid), 490 µg/mL (≈ 918 µM). The “residual solid after solubility test” value in data set [7] (fasted state simulated gastric fluid, listed as solid form 14-A) is “amorphous”; in data set [7] (fasted state simulated intestinal fluid), “pralsetinib freebase solid form A”; in data set [7] (fed state simulated intestinal fluid), “amorphous”; in data set [7] (water) it was “XRPD Pattern 14-A”. The “Solubility in fasted state simulated intestinal fluid” value in data set [7] (listed as solid form 14-A) is 200 µg/mL (≈ 375 µM). The same compound registered a Solubility in water in data set [7] (listed as solid form 14-A) of 1700 µg/mL (≈ 3190 µM). In addition, in data set [7] (listed as solid form 14-A), the “solubility in water” value is given as “high solubility”.
Consider `CO[C@]1(C(=O)N[C@@H](C)c2ccc(-n3cc(F)cn3)nc2)CC[C@H](c2nc(C)cc(Nc3cc(C)[nH]n3)n2)CC1` [Solid Form 15-A, pralsetinib], for which the “mass change by DVS” value in data set [3] (between 2% and 90% relative humidity, listed as solid form 15-A) is recorded as 3.4 wt. %. In addition, the “mass change by DVS” value in data set [3] (between 15% and 75% relative humidity, listed as solid form 15-A) worked out at 1.9 wt. %. The “DVS Mass Change” value in data set [3] (listed as Succinate 15-A) is on record as 3.40 wt. %. For the same compound, the “reversibility of the DVS mass change” value in data set [3] (listed as solid form 15-A) is reported as “appears to be reversible”. Also, the “stability … to humidification” value in data set [4] (listed as Pattern 15-A) is “stable”. In data set [4] (listed as succinate 15-A), the “stability … to humidification” value is on record as “stable” and the “stability of salt solid form to drying” value is “stable”. Moreover, in data set [5] (listed as Solid form 15-A), the “stability slurrying 7 days in EtOAc” value is on record as “stable”, the “stability slurrying 7 days in EtOH” value is listed as “stable” and the “stability slurrying 7 days in EtOH:water (95:5 vol)” value was “converted to Pattern 15-C”. The “reduction in purity after 7 days slurry” value in data set [5] (EtOH:water (95:5 vol) slurry) came to 0.13%. The “stability on exposure to 75% relative humidity at 40° C.” value in data set [6] (listed as Solid form 15-A) is reported as “converted to Pattern 15-A+B”. Besides, the “solubility in simulated gastric fluid” value in data set [7] is “high solubility”. Besides, in data set [7] (fasted state simulated gastric fluid, listed as solid form 15-A), the “residual solid after solubility test” value is reported as “solid form 15-D”. In data set [7] (listed as solid form 15-A), the “Solubility in fasted state simulated gastric fluid” value was 1120 µg/mL (≈ 2100 µM), the “Solubility in fasted state simulated intestinal fluid” value was 20 µg/mL (≈ 37.5 µM), the “Solubility in fed state simulated intestinal fluid” value is 840 µg/mL (≈ 1570 µM) and the Solubility in water was 450 µg/mL (≈ 843 µM).
For the compound `CO[C@]1(C(=O)N[C@@H](C)c2ccc(-n3cc(F)cn3)nc2)CC[C@H](c2nc(C)cc(Nc3cc(C)[nH]n3)n2)CC1` [Solid Form D, pralsetinib], in data set [8], the “behaviour sitting in atmosphere” value was “converted to other solid forms” and the behaviour upon drying result is recorded as “converted to solid form B”.
Take `CO[C@]1(C(=O)N[C@@H](C)c2ccc(-n3cc(F)cn3)nc2)CC[C@H](c2nc(C)cc(Nc3cc(C)[nH]n3)n2)CC1` [Solid Form I, pralsetinib]: the behaviour upon drying result in data set [8] (listed as Pattern I) is reported as “lost crystallinity”.
Take `CO[C@]1(C(=O)N[C@@H](C)c2ccc(-n3cc(F)cn3)nc2)CC[C@H](c2nc(C)cc(Nc3cc(C)[nH]n3)n2)CC1` [Solid Form J, pralsetinib]: the behaviour upon drying entry in data set [8] was “unstable and quickly converted to amorphous”; in data set [8] (listed as Pattern J), “either lost crystallinity or became amorphous”.
As to `CO[C@]1(C(=O)N[C@@H](C)c2ccc(-n3cc(F)cn3)nc2)CC[C@H](c2nc(C)cc(Nc3cc(C)[nH]n3)n2)CC1` [Solid Form K, pralsetinib], the behaviour upon drying entry in data set [8] was “unstable on drying and converted to material characterized by XRPD Pattern M”.
`CO[C@]1(C(=O)N[C@@H](C)c2ccc(-n3cc(F)cn3)nc2)CC[C@H](c2nc(C)cc(Nc3cc(C)[nH]n3)n2)CC1` [Solid Form L, pralsetinib]: the behaviour upon drying result in data set [8] (listed as Pattern L) is reported as “stable”.
Consider `CO[C@]1(C(=O)N[C@@H](C)c2ccc(-n3cc(F)cn3)nc2)CC[C@H](c2nc(C)cc(Nc3cc(C)[nH]n3)n2)CC1` [Solid Form P, pralsetinib], for which the behaviour upon drying entry in data set [8] was “unstable upon drying and converted to a mixture of material characterized by XRPD Pattern P and XRPD Pattern L and extra peaks”.
The same measure, in the same setting: the same measure for `CO[C@]1(C(=O)N[C@@H](C)c2ccc(-n3cc(F)cn3)nc2)CC[C@H](c2nc(C)cc(Nc3cc(C)[nH]n3)n2)CC1` [Solid Form Q, pralsetinib]: “lost crystallinity”.
